{
  "source": "PubChem BioAssay (NCI)",
  "test_in_all_cases": "NCI tumour cell line growth inhibition, 48 h",
  "key": {"[1]": {"system": "DMS 273 small cell lung"}, "[2]": {"system": "UACC-257 melanoma"}, "[3]": {"system": "UACC-62 melanoma"}, "[4]": {"system": "T-47D breast"}, "[5]": {"system": "SK-MEL-2 melanoma"}, "[6]": {"system": "CCRF-CEM leukemia"}, "[7]": {"system": "SK-MEL-5 melanoma"}, "[8]": {"system": "DU-145 prostate"}, "[9]": {"system": "KM20L2 colon"}, "[10]": {"system": "ACHN renal"}},
  "note": "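Five concentrations, 48 hours, 96-well plates. Here, GI50 denotes the concentration required for 50% inhibition of growth. Definition used: TGI = concentration required for complete inhibition of growth.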",
  "data": [
    {"smiles": "CC12CC(Br)(Br)C(=O)C3C1CCCC32", "values": [
      {"measurement": "TGI", "setting": "[1]", "result": 18.2, "unit": "µM"},
      {"measurement": "TGI", "setting": "[2]", "result": 22.2, "unit": "µM"},
      {"measurement": "TGI", "setting": "[3]", "result": 19.7, "unit": "µM"},
      {"measurement": "TGI", "setting": "[4]", "result": 6.4, "unit": "µM"},
      {"measurement": "TGI", "setting": "[5]", "result": 30.4, "unit": "µM"},
      {"measurement": "TGI", "setting": "[6]", "result": 9.43, "unit": "µM"},
      {"measurement": "TGI", "setting": "[7]", "result": 17.5, "unit": "µM"},
      {"measurement": "TGI", "setting": "[8]", "result": 25.1, "unit": "µM"},
      {"measurement": "TGI", "setting": "[9]", "result": 37.9, "unit": "µM"},
      {"measurement": "TGI", "setting": "[10]", "result": 15.5, "unit": "µM"}
    ]},
    {"smiles": "O=C1C2C3C=CC(C2C(=O)N1CN1CCOCC1)C1C2C(=O)N(CN4CCOCC4)C(=O)C2C31", "note": "(stereo not drawn)", "values": [
      {"measurement": "TGI", "setting": "[1]", "result": 33.3, "unit": "µM"},
      {"measurement": "TGI", "setting": "[2]", "result": "> 71.5", "unit": "µM"},
      {"measurement": "TGI", "setting": "[3]", "result": "> 63", "unit": "µM"},
      {"measurement": "TGI", "setting": "[4]", "result": "> 100", "unit": "µM"},
      {"measurement": "TGI", "setting": "[5]", "result": "> 61.1", "unit": "µM"},
      {"measurement": "TGI", "setting": "[6]", "result": 57.9, "unit": "µM"},
      {"measurement": "TGI", "setting": "[7]", "result": "> 58", "unit": "µM"},
      {"measurement": "TGI", "setting": "[8]", "result": "> 100", "unit": "µM"},
      {"measurement": "TGI", "setting": "[9]", "result": 63.1, "unit": "µM"},
      {"measurement": "TGI", "setting": "[10]", "result": "> 91.5", "unit": "µM"}
    ]},
    {"smiles": "CC1=C(C(=O)Nc2cc(F)c(F)cc2F)C(c2ccc(N(C)C)cc2)C(C(=O)Nc2cc(F)c(F)cc2F)=C(C)N1", "values": [
      {"measurement": "TGI", "setting": "[1]", "result": "> 100", "unit": "µM"},
      {"measurement": "TGI", "setting": "[2]", "result": "> 82.8", "unit": "µM"},
      {"measurement": "GI50", "setting": "[3]", "result": 12.2, "unit": "µM"},
      {"measurement": "TGI", "setting": "[3]", "result": 89.8, "unit": "µM"},
      {"measurement": "GI50", "setting": "[4]", "result": 3.64, "unit": "µM"},
      {"measurement": "TGI", "setting": "[4]", "result": 59.2, "unit": "µM"},
      {"measurement": "TGI", "setting": "[5]", "result": "> 100", "unit": "µM"},
      {"measurement": "TGI", "setting": "[6]", "result": "> 85.9", "unit": "µM"},
      {"measurement": "TGI", "setting": "[7]", "result": "> 74.3", "unit": "µM"},
      {"measurement": "GI50", "setting": "[8]", "result": 49.4, "unit": "µM"},
      {"measurement": "TGI", "setting": "[8]", "result": "> 100", "unit": "µM"},
      {"measurement": "TGI", "setting": "[9]", "result": "> 100", "unit": "µM"},
      {"measurement": "TGI", "setting": "[10]", "result": "> 87.9", "unit": "µM"}
    ]},
    {"smiles": "O=C1/C(=C/c2ccccc2)CN(C(=O)/C=C/c2ccccc2)C/C1=C\\c1ccccc1", "values": [
      {"measurement": "TGI", "setting": "[1]", "result": "> 100", "unit": "µM"},
      {"measurement": "TGI", "setting": "[2]", "result": 37, "unit": "µM"},
      {"measurement": "TGI", "setting": "[3]", "result": 16.2, "unit": "µM"},
      {"measurement": "TGI", "setting": "[4]", "result": 15.1, "unit": "µM"},
      {"measurement": "TGI", "setting": "[5]", "result": 52, "unit": "µM"},
      {"measurement": "TGI", "setting": "[6]", "result": 9, "unit": "µM"},
      {"measurement": "TGI", "setting": "[7]", "result": "> 35", "unit": "µM"},
      {"measurement": "TGI", "setting": "[8]", "result": 40.9, "unit": "µM"},
      {"measurement": "TGI", "setting": "[9]", "result": "> 46.2", "unit": "µM"},
      {"measurement": "TGI", "setting": "[10]", "result": 38.5, "unit": "µM"}
    ]}
  ]
}
